Test results from patent publication US9242992B2, “Crystal form of tricyclic benzopyran compound and production method thereof” (NISSAN CHEMICAL INDUSTRIES, LTD., priority 2009, dated 2016).

Columns and labels:
Type in all cases: physicochemical
[1] = Solubility, Japanese Pharmacopoeia dissolution test in JP2 pH 6.8; details: for Solubility: JP2, pH 6.8, 60 minutes, 10 mg in 500 mL, 37° C.
Description: The solubility and the specific surface area of the A-form, B-form, E-form and F-form crystals of Compound (1) were examined.
[Measurement conditions] JP2, pH 6.8 (3.40 g of potassium dihydrogen phosphate and 3.55 g of anhydrous disodium hydrogen phosphate is dissolved in water to obtain 1 liter of solution. The 1 volume of the solution is mixed with the 1 volume of water to obtain JP2, pH 6.8.), 60 minutes
according to the Japanese Pharmacopoeia fifteenth edition, dissolution test (Protocol of the dissolution test; sample amount: 10 mg, test solution: JP2, pH 6.8, 500 mL, sampling point: 5, 15, 30, 60 min, paddle rotational speed: […], bath temperature: 37° C.)

[2] = Thermostability, humidity stability and photostability tests (total impurities by HPLC); details: for Total amount of impurities by HPLC, initial value: Test Example 1, before the stability tests
Description: The thermostability, humidity stability and photostability of the A-, B- and F-form crystals of Compound (1) were examined.
The conditions for each test were as follows.
Thermostability test: 60° C., humidity was not controlled, 2 weeks, in air-tight container
Humidity stability test: 25° C., 90% RH, 2 weeks, in opened container
Photostability test: 200 W/m^2·hr, 25° C., 60% RH, 57 hours, in opened container
(§1) In addition, the stability of the crystals was evaluated by the degree of increase of the total amount of impurities by HPLC analysis.

[3] = Acceleration test (total impurities by HPLC); details: for Increase of impurities in acceleration test (in words) / Total amount of impurities by HPLC, measured value after test: 40° C., 75% RH, 6 months, air-tight container; for Total amount of impurities by HPLC, initial value: Test Example 2, before the acceleration test
Description: The A-, B- and E-form crystals of Compound (1) were subjected to an acceleration test. The conditions for the test were as follows.
Acceleration test: 40° C., 75% RH, 6 months, in an air-tight container
as §1

[4] = Water adsorption analysis; details: 25° C., sample 0.2 g, pre-treatment 60° C. 20 hours
Description: The A-, B- and E-form crystals of Compound (1) were evaluated by water adsorption analysis.
[Measurement conditions] sample amount: 0.2 g; pre-treatment: 60° C., 20 hours; temperature 25° C., Volumetric adsorption apparatus (trade name: BELSORP 18 manufactured by BEL Japan, Inc.) was used.

[5] = Specific surface area by BET method (nitrogen adsorption); details: for Specific surface area: BET, adsorption temperature 77K, equilibrium time 300 seconds
Description: [Measurement conditions] adsorption temperature: 77K, adsorption equilibrium time: 300 seconds
[Measured value unit] square meter/gram
The measurement was performed by the BET method using the nitrogen adsorption in liquid nitrogen after a pre-treatment in refluxed liquid nitrogen.

[6] = High-temperature XRD measurement
Description: The A-form and B-form crystals of Compound (1) were subjected to the high-temperature XRD measurement.
As shown in FIG. 8 and FIG. 9, there was observed no change until 100° C. in the powder X-ray diffractogram of the A-form crystal and until 60° C. in the powder X-ray diffractogram of the B-form crystal.

SMILES	Solubility [1]	Total amount of impurities by HPLC, initial value [2]	Increase of impurities in acceleration test (in words) [3]	Total amount of impurities by HPLC, measured value after test [3]	Total amount of impurities by HPLC, initial value [3]	Adsorption of water (in words) [4]	Specific surface area [5]	Temperature until which no change was observed in the powder X-ray diffractogram [6]	Solubility in the JP2 solution (in words) ([1]; JP2, pH 6.8)	Increase of impurities under the conditions (in words) ([2]; thermostability, humidity stability and photostability tests)	Adsorption of water (in words) ([4]; listed as A-form)	Specific surface area (in words) ([5]; BET method)
Cc1cc(CO)nc2cc3c(cc12)OC(C)(C)[C@H](O)[C@H]3NCCc1ccccc1 [F-form crystal, (3R,4S)-7-hydroxymethyl-2,2,9-trimethyl-4-(phenethylamino)-3,4-dihydro-2H-pyrano[2,3-g]quinolin-3-ol]	30%	0.25%	–	–	–	–	–	–	–	–	–	–
Cc1cc(CO)nc2cc3c(cc12)OC(C)(C)[C@H](O)[C@H]3NCCc1ccccc1 [E-form crystal, (3R,4S)-7-hydroxymethyl-2,2,9-trimethyl-4-(phenethylamino)-3,4-dihydro-2H-pyrano[2,3-g]quinolin-3-ol]	23%	–	no increase of impurities	0.64%	0.64%	no adsorption of water	0.3 square meter/gram	–	–	–	–	–
Cc1cc(CO)nc2cc3c(cc12)OC(C)(C)[C@H](O)[C@H]3NCCc1ccccc1 [B-form crystal, (3R,4S)-7-hydroxymethyl-2,2,9-trimethyl-4-(phenethylamino)-3,4-dihydro-2H-pyrano[2,3-g]quinolin-3-ol]	27%	0.55%	–	1.15%	0.42%	the adsorption of water was observed, the adsorption was reversible	0.3 square meter/gram	60 °C	–	–	–	–
Cc1cc(CO)nc2cc3c(cc12)OC(C)(C)[C@H](O)[C@H]3NCCc1ccccc1 [A-form crystal, (3R,4S)-7-hydroxymethyl-2,2,9-trimethyl-4-(phenethylamino)-3,4-dihydro-2H-pyrano[2,3-g]quinolin-3-ol]	36%	0.84%	no increase of impurities	0.80%	0.70%	less than that on E-form crystal	0.7 square meter/gram	100 °C	high solubility	no increase of impurities	no adsorption of water	high value
